Legend:
Format in all cases: in vivo
[1] = test system: Hordeum vulgare L., spring barley (HORVS); test: greenhouse trial, foliar applied compositions, HORVS
Description: (§1) More specifically, the following equation is used to calculate the expected activity of mixtures containing two herbicical active ingredients: Expected=A+B−(A×B/100) • A=observed efficacy of a first active ingredient at the same concentration as used in the mixture; • B=observed efficacy of the second active ingredient (or product, which may be a combination of active ingredients) at the same concentration as used in the mixture.
(§2) Results in Tables 1-8 are greenhouse trial results for foliar applied compositions.
(§3) • g/ha=grams acid equivalent per hectare (g ae/ha) for Cmpd 1 and grams active ingredient per hectare (g ai/ha) for diflufenican, picolinafen, BACARA® and BACARA® FORTE • Obs=observed value • Exp=expected value as calculated by the equations set forth above in paragraph [0024]. • Cmpd 1=benzyl 4-amino-3-chloro-6-(4-chloro-2-fluoro-3-methoxyphenyl)-5-fluoropyridine-2-carboxylate

[2] = test system: Papaver rhoeas L., common poppy (PAPRH); test: greenhouse trial, foliar applied compositions, PAPRH
Description: as §1, §2, §3

[3] = test system: Salsola tragus L., Russian thistle (SASKR); test: greenhouse trial, foliar applied compositions, SASKR
Description: as §1, §2, §3

[4] = test system: Sinapis arvensis L., wild mustard (SINAR); test: greenhouse trial, foliar applied compositions, SINAR
Description: as §1, §2, §3

[5] = test system: Stellaria media (L.) Vill., common chickweed (STEME); test: greenhouse trial, foliar applied compositions, STEME
Description: as §1
In some embodiments, the methods provided herein are utilized to control undesirable vegetation in cereals. In certain embodiments, the undesirable vegetation is Alopecurus myosuroides Huds. (blackgrass, ALOMY), Apera spica venti (L.) Beauv. (windgrass, APESV), Avena fatua L. (wild oat, AVEFA), Bromus tectorum L. (downy brome, BROTE), Lolium multiflorum Lam. (Italian ryegrass, LOLMU), Lolium rigidum (rigid ryegrass), Lolium multiflorum subsp. Gaudini (annual ryegrass, LOLMG), Phalaris minor Retz. […]
as §3

[6] = test system: Triticum aestivum (spring), spring wheat (TRZAS); test: greenhouse trial, foliar applied compositions, TRZAS
Description: as §1, §2, §3

[7] = test system: Veronica persica Poir., Persian speedwell (VERPE); test: greenhouse trial, foliar applied compositions, VERPE
Description: as §1, §2, §3

[8] = test system: Matricaria recutita L., wild chamomile (MATCH); test: greenhouse trial, foliar applied compositions, MATCH
Description: as §1, §2, §3

[9] = test system: Lamium purpureum L., purple deadnettle (LAMPU); test: greenhouse trial, foliar applied compositions, LAMPU
Description: as §1, §2, §3

[10] = test system: Viola tricolor L., wild violet (VIOTR); test: greenhouse trial, foliar applied compositions, VIOTR
Description: as §1, §2, §3

[11] = test system: Kochia scoparia (L.) Schrad., kochia (KCHSC); test: greenhouse trial, foliar applied compositions, KCHSC
Description: as §1, §2, §3

[12] = test system: Galium aparine L., catchweed bedstraw (GALAP); test: greenhouse trial, foliar applied compositions, GALAP
Description: as §1, §2, §3

[13] = test system: Cirsium arvense (L.) Scop., Canada thistle (CIRAR); test: greenhouse trial, foliar applied compositions, CIRAR
Description: as §1, §2, §3

[14] = test system: Chenpodium album L., common lambsquarters (CHEAL); test: greenhouse trial, foliar applied compositions, CHEAL
Description: as §1, §2, §3

COc1c(Cl)ccc(-c2nc(C(=O)OCc3ccccc3)c(Cl)c(N)c2F)c1F [Cmpd 1, benzyl 4-amino-3-chloro-6-(4-chloro-2-fluoro-3-methoxyphenyl)-5-fluoropyridine-2-carboxylate]
HORVS Obs ([1]; Cmpd 1 2.5 g ae/ha alone): 0 | HORVS Obs ([1]; Cmpd 1 5 g ae/ha alone): 0 | PAPRH Obs ([2]; Cmpd 1 2.5 g ae/ha alone): 20 | PAPRH Obs ([2]; Cmpd 1 5 g ae/ha alone): 70 | SASKR Obs ([3]; Cmpd 1 2.5 g ae/ha alone): 10 | SASKR Obs ([3]; Cmpd 1 5 g ae/ha alone): 60 | SINAR Obs ([4]; Cmpd 1 2.5 g ae/ha alone): 60 | SINAR Obs ([4]; Cmpd 1 5 g ae/ha alone): 70 | STEME Obs ([5]; Cmpd 1 2.5 g ae/ha alone): 20 | STEME Obs ([5]; Cmpd 1 5 g ae/ha alone): 30 | TRZAS Obs ([6]; Cmpd 1 2.5 g ae/ha alone): 0 | TRZAS Obs ([6]; Cmpd 1 5 g ae/ha alone): 5 | VERPE Obs ([7]; Cmpd 1 2.5 g ae/ha alone): 0 | VERPE Obs ([7]; Cmpd 1 5 g ae/ha alone): 5 | MATCH Obs ([8]; Cmpd 1 2.5 g ae/ha alone): 0 | MATCH Obs ([8]; Cmpd 1 5 g ae/ha alone): 10 | LAMPU Obs ([9]; Cmpd 1 2.5 g ae/ha alone): 80 | LAMPU Obs ([9]; Cmpd 1 5 g ae/ha alone): 80 | VIOTR Obs ([10]; Cmpd 1 2.5 g ae/ha alone): 10 | VIOTR Obs ([10]; Cmpd 1 5 g ae/ha alone): 10 | KCHSC Obs ([11]; Cmpd 1 2.5 g ae/ha alone): 20 | KCHSC Obs ([11]; Cmpd 1 5 g ae/ha alone): 40 | GALAP Obs ([12]; Cmpd 1 2.5 g ae/ha alone): 60 | GALAP Obs ([12]; Cmpd 1 5 g ae/ha alone): 60 | CIRAR Obs ([13]; Cmpd 1 2.5 g ae/ha alone): 10 | CIRAR Obs ([13]; Cmpd 1 5 g ae/ha alone): 20 | CHEAL Obs ([14]; Cmpd 1 2.5 g ae/ha alone): 50 | CHEAL Obs ([14]; Cmpd 1 5 g ae/ha alone): 60

O=C(Nc1ccc(F)cc1F)c1cccnc1Oc1cccc(C(F)(F)F)c1 [Diflufenican, N-(2,4-difluorophenyl)-2-[3-(trifluoromethyl)phenoxy]-3-pyridinecarboxamide]
HORVS Obs ([1]; Diflufenican 50 g ai/ha alone): 5 | PAPRH Obs ([2]; Diflufenican 50 g ai/ha alone): 0 | SASKR Obs ([3]; Diflufenican 50 g ai/ha alone): 70 | SINAR Obs ([4]; Diflufenican 50 g ai/ha alone): 30 | TRZAS Obs ([6]; Diflufenican 50 g ai/ha alone): 5 | VERPE Obs ([7]; Diflufenican 50 g ai/ha alone): 10 | MATCH Obs ([8]; Diflufenican 50 g ai/ha alone): 0 | LAMPU Obs ([9]; Diflufenican 50 g ai/ha alone): 0 | VIOTR Obs ([10]; Diflufenican 50 g ai/ha alone): 15 | KCHSC Obs ([11]; Diflufenican 50 g ai/ha alone): 40 | GALAP Obs ([12]; Diflufenican 50 g ai/ha alone): 0 | CIRAR Obs ([13]; Diflufenican 50 g ai/ha alone): 0 | CHEAL Obs ([14]; Diflufenican 50 g ai/ha alone): 10

O=C(Nc1ccc(F)cc1)c1cccc(Oc2cccc(C(F)(F)F)c2)n1 [Picolinafen, N-(4-fluorophenyl)-6-[3-(trifluoromethyl)phenoxy]-2-pyridinecarboxamide]
HORVS Obs ([1]; Picolinafen 50 g ai/ha alone): 10 | SASKR Obs ([3]; Picolinafen 50 g ai/ha alone): 30 | SINAR Obs ([4]; Picolinafen 50 g ai/ha alone): 70 | TRZAS Obs ([6]; Picolinafen 50 g ai/ha alone): 10 | VERPE Obs ([7]; Picolinafen 50 g ai/ha alone): 10 | MATCH Obs ([8]; Picolinafen 50 g ai/ha alone): 0 | LAMPU Obs ([9]; Picolinafen 50 g ai/ha alone): 0 | VIOTR Obs ([10]; Picolinafen 50 g ai/ha alone): 10 | KCHSC Obs ([11]; Picolinafen 50 g ai/ha alone): 20 | CIRAR Obs ([13]; Picolinafen 50 g ai/ha alone): 15 | CHEAL Obs ([14]; Picolinafen 50 g ai/ha alone): 70

Source: patent publication US9161536B2, “Herbicidal compositions comprising 4-amino-3-chloro-6-(4-chloro-2-fluoro-3-methoxyphenyl)-5-fluoropyridine-2-carboxylic acid or a derivative thereof and flurtamone, diflufenican, or picolinafen” (Dow AgroSciences LLC, priority 2012, dated 2015)
